Measurements taken from patent publication EP4722201A1, “3-PHENYLISOXAZOLINE-5-CARBOXAMIDE COMPOUND, AND PREPARATION METHOD THEREFOR, HERBICIDAL COMPOSITION THEREOF AND USE THEREOF” (Jiangsu Flag Chemical Industry Co., Ltd, priority 2023, dated 2024).

Columns and labels:
Assay type in all cases: in vivo
[1] = system: Cyperus iria; assay: Indoor herbicide activity determination, post-emergence (stem and leaf spray at 2-4 leaf stage); details: 504 h, 60 g a.i./ha, determined 21 days later, read-out: Inhibition rate of fresh weight, Cyperus iria
Source text: (§1) The testing method for herbicide activity of the compound of the present invention was as follows:
(§2) Post-emergence: an appropriate quantity of seeds of gramineous weeds (Echinochloa crusgalli, Eleusine indica, Digitaria sanguinalis, Alopecurus japonicus, Beckmannia syzigachne, Leptochloa chinensis, Polypogon fugax, Alopecurus aequalis, Lolium multiflorum, Poa annua, Aegilops tauschii, Avena fatua, Alopecurus myosuroides, Alopecurus japonicus and Alopecurus aequalis), broad-leaved weeds (Eclipta prostrata, Amaranthus retroflexus, Rorippa indica, Malachium aquaticum, Veronica polita, Conyza canadensis, Sesbania cannabina, Sagittariatrifolia and Schoenoplectiella juncoides), and Cyperus iria were sown in plastic pots having a diameter of 7 cm and holes at the bottom and filled with nutrient soil (sandy soil, pH 6.1, organic matter 1%) respectively, the seeds were covered with an appropriate amount of soil after being sown, then the soil was wetted with water from the bottom, the seeds were cultured in a constant-temperature illuminated culture room until a 2-4 leaf stage, and stems and leaves underwent spray treatment. After the treatment, the test materials were placed in a laboratory and cultured in the constant-temperature illuminated culture room after the liquid was naturally dry in the shade, and results were determined 21 days later. Inhibition rate of fresh weight % = (1−(fresh weight of treated plants)/(fresh weight of control plants)) × 100% [formula]

[2] = system: Digitaria sanguinalis; assay: as above; details: 504 h, 60 g a.i./ha, determined 21 days later, read-out: Inhibition rate of fresh weight, Digitaria sanguinalis
Source text: as §1, §2

[3] = system: Eclipta prostrata; assay: as above; details: 504 h, 60 g a.i./ha, determined 21 days later, read-out: Inhibition rate of fresh weight, Eclipta prostrata
Source text: as §1, §2

[4] = system: Alopecurus japonicus; assay: Indoor herbicide activity determination, Seed Treatment; pre-emergence (soil spray); details: Dosage 240 g a.i./ha
Method in brief: (§3)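 Readout is percent inhibition of fresh weight relative to control plants, determined 21 days after treatment. Soil was sprayed one day after sowing, in a spray tower at 300 mm height and 390 mL/min nozzle flow, onto sandy soil of pH 6.1 with 1% organic matter.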

[5] = system: Alopecurus myosuroides; assay: as above; details: Dosage 240 g a.i./ha
Method in brief: as §3

[6] = system: Eleusine indica; assay: as above; details: Dosage 240 g a.i./ha
Method in brief: as §3

[7] = system: Leptochloa chinensis; assay: as above; details: Dosage 240 g a.i./ha
Method in brief: as §3

[8] = system: Lolium multiflorum; assay: as above; details: Dosage 240 g a.i./ha
Method in brief: as §3

Row | SMILES | inhibition at 60 g/ha [1] [%] | inhibition at 60 g/ha [2] [%] | inhibition at 60 g/ha [3] [%] | Herbicidal activities, Alopecurus japonicus (inhibition rate class) [4] | Herbicidal activities, Alopecurus myosuroides (inhibition rate class) [5] | Herbicidal activities, Eleusine indica (inhibition rate class) [6] | Herbicidal activities, Leptochloa chinensis (inhibition rate class) [7] | Herbicidal activities, Lolium multiflorum (inhibition rate class) [8]
1 | CC1(C(=O)N[C@H]2C[C@@H](C(=O)O)C2)CC(c2cc(F)cc(F)c2)=NO1 (mixture of isomers) [I-111] | 80 to 100 | 80 to 100 | 60 to 80 | A (A indicates that the inhibition rate was greater than or equal to 80% to 100%) | A (A indicates that the inhibition rate was greater than or equal to 80% to 100%) | A (A indicates that the inhibition rate was greater than or equal to 80% to 100%) | A (A indicates that the inhibition rate was greater than or equal to 80% to 100%) | A (A indicates that the inhibition rate was greater than or equal to 80% to 100%)
2 | COC(=O)[C@H]1C[C@@H](NC(=O)C2(C)CC(c3cc(F)cc(F)c3)=NO2)C1 (mixture of isomers) [I-113] | 80 to 100 | 80 to 100 | 60 to 80 | A (A indicates that the inhibition rate was greater than or equal to 80% to 100%) | A (A indicates that the inhibition rate was greater than or equal to 80% to 100%) | A (A indicates that the inhibition rate was greater than or equal to 80% to 100%) | A (A indicates that the inhibition rate was greater than or equal to 80% to 100%) | A (A indicates that the inhibition rate was greater than or equal to 80% to 100%)
3 | CC1(C(=O)N[C@H]2C[C@@H](C(=O)O)C2)CC(c2cc(F)cc(Cl)c2)=NO1 (mixture of isomers) [I-132] | 80 to 100 | 80 to 100 | 60 to 80 | A (A indicates that the inhibition rate was greater than or equal to 80% to 100%) | A (A indicates that the inhibition rate was greater than or equal to 80% to 100%) | A (A indicates that the inhibition rate was greater than or equal to 80% to 100%) | A (A indicates that the inhibition rate was greater than or equal to 80% to 100%) | A (A indicates that the inhibition rate was greater than or equal to 80% to 100%)
4 | COC(=O)[C@H]1C[C@@H](NC(=O)C2(C)CC(c3cc(F)cc(Cl)c3)=NO2)C1 (mixture of isomers) [I-134] | 80 to 100 | 80 to 100 | 60 to 80 | A (A indicates that the inhibition rate was greater than or equal to 80% to 100%) | A (A indicates that the inhibition rate was greater than or equal to 80% to 100%) | A (A indicates that the inhibition rate was greater than or equal to 80% to 100%) | A (A indicates that the inhibition rate was greater than or equal to 80% to 100%) | A (A indicates that the inhibition rate was greater than or equal to 80% to 100%)
5 | CC1(C(=O)N[C@H]2C[C@@H](C(=O)O)C2)CC(c2cc(Cl)cc(Cl)c2)=NO1 (mixture of isomers) [I-137] | 80 to 100 | 80 to 100 | 40 to 60 | A (A indicates that the inhibition rate was greater than or equal to 80% to 100%) | A (A indicates that the inhibition rate was greater than or equal to 80% to 100%) | A (A indicates that the inhibition rate was greater than or equal to 80% to 100%) | A (A indicates that the inhibition rate was greater than or equal to 80% to 100%) | A (A indicates that the inhibition rate was greater than or equal to 80% to 100%)
6 | COC(=O)[C@H]1C[C@@H](NC(=O)C2(C)CC(c3cc(Cl)cc(Cl)c3)=NO2)C1 (mixture of isomers) [I-139] | 80 to 100 | 80 to 100 | 40 to 60 | A (A indicates that the inhibition rate was greater than or equal to 80% to 100%) | A (A indicates that the inhibition rate was greater than or equal to 80% to 100%) | A (A indicates that the inhibition rate was greater than or equal to 80% to 100%) | A (A indicates that the inhibition rate was greater than or equal to 80% to 100%) | A (A indicates that the inhibition rate was greater than or equal to 80% to 100%)
7 | CC1(C(=O)N[C@H]2C[C@@H](C(=O)O)C2)CC(c2cc(F)cc(OC(F)(F)F)c2)=NO1 (mixture of isomers) [I-157] | 60 to 80 | 80 to 100 | 60 to 80 | A (A indicates that the inhibition rate was greater than or equal to 80% to 100%) | A (A indicates that the inhibition rate was greater than or equal to 80% to 100%) | A (A indicates that the inhibition rate was greater than or equal to 80% to 100%) | A (A indicates that the inhibition rate was greater than or equal to 80% to 100%) | A (A indicates that the inhibition rate was greater than or equal to 80% to 100%)
8 | COC(=O)[C@H]1C[C@@H](NC(=O)C2(C)CC(c3cc(F)cc(OC(F)(F)F)c3)=NO2)C1 (mixture of isomers) [I-159] | 60 to 80 | 80 to 100 | 60 to 80 | A (A indicates that the inhibition rate was greater than or equal to 80% to 100%) | A (A indicates that the inhibition rate was greater than or equal to 80% to 100%) | A (A indicates that the inhibition rate was greater than or equal to 80% to 100%) | A (A indicates that the inhibition rate was greater than or equal to 80% to 100%) | A (A indicates that the inhibition rate was greater than or equal to 80% to 100%)
9 | O=C(N[C@H]1C[C@@H](C(=O)O)C1)C1(C(F)(F)F)CC(c2cc(F)cc(Cl)c2)=NO1 (mixture of isomers) [I-223] | 80 to 100 | 80 to 100 | 60 to 80 | A (A indicates that the inhibition rate was greater than or equal to 80% to 100%) | A (A indicates that the inhibition rate was greater than or equal to 80% to 100%) | A (A indicates that the inhibition rate was greater than or equal to 80% to 100%) | A (A indicates that the inhibition rate was greater than or equal to 80% to 100%) | A (A indicates that the inhibition rate was greater than or equal to 80% to 100%)
